How the values were obtained:
Assay type in all cases: cell-based, human
HepG2 cells = assay: Cell cycle analysis by PI staining / FACS; conditions: 48 h
Protocol: It is well documented that exposure to microtubule targeting agents leads to the malformed mitotic spindle which eventually leads to cell cycle arrest at the G2/M phase and apoptosis induction. Thus, the effect of the selected candidate 9 on the cell cycle progression of the HepG2 cell line was examined by flow cytometry analysis (FACS). The HepG2 cell line was treated with the IC50 concentration of compound 9 for 48 h.
Cell cycle analysis in HepG2 cells was carried out by FACS analysis according to the manufacturer’s directions. See Section 3.3.3 in Supplementary Material.
Figure 3 Compound 9 induces G2/M phase disturbance in HepG2 cells. (A) HepG2 cells were treated with 1.38 μM of compound 9 for 48 h. […]
(§1) To measure the cytotoxic activity of the synthesized derivatives 2a-11 in hepatocel-lular carcinoma (HepG2) cell line (ATCC Cat No. HB-8065) as well as normal human liver cell line HL-7702 (ATCC Cat. No. 77402), cell viability assay was assessed using MTT assay method. […] The color inten-sity of the formazan product, which represents the growth condition of the cells, is quan-tified by using an ELISA plate reader (EXL 800, USA) at 570 nm absorbance. […]
Compounds 9, 10 and 11 were evaluated for their tubulin inhibitory activity levels according to the manufacturer’s instructions using # abcam Human Beta-tubulin simplestep […]

p53 = assay: ELISA quantification of p53 level; conditions: HepG2, 1.38 μM (IC50), 48 h
Protocol: (§2) Compound 9 was screened for its ability to activate p53 and Bax as well as downregulate the level of Bcl-2 to investigate the mechanistic apoptotic pathway that catalyzed the apoptosis process. HepG2 cells were treated with compound 9 at a concentration equal to its IC50 in μM, and the level of p53, Bax, and Bcl-2 was quantized using ELISA analysis. The results obtained for compound 9 show the increase in the level of p53 and Bax by 8.91- and 4.50-fold, respectively, compared with the negative control samples.
(§3) Apoptotic markers (p53, Bax and Bcl-2) were measured in HepG2 cells using ELISA analysis according to the manufacturer’s directions. See Section 3.3.6 in Supplementary Material.
(§4) Figure 6 (A) The quantification of p53. (B) The quantification of Bax. (C) The quantification of Bcl-2. HepG2 cells were treated with 1.38 μM of compound 9 for 48 h and apoptotic markers were determined by ELISA assay.
(§5) 3.3.1. Cytotoxic activity evaluation
as §1

Bcl-2 = assay: ELISA quantification of Bcl-2 level; conditions: HepG2, 1.38 μM (IC50), 48 h
Protocol: as §2, §3, §4, §5, §1

COc1ccc(C2=N/C(=C\c3cc(OC)c(OC)c(OC)c3)C(=O)NN2c2ccccc2)cc1OC [Compound 9, (Z)-3-(3,4-Dimethoxyphenyl)-2-Phenyl-5-(3,4,5-Trimethoxybenzylidene)-1,2-Dihydro-1,2,4-Triazin-6(5H)-one]
G2/M cell population percentage (HepG2 cells; HepG2, 1.38 μM (IC50), control 13.28%): 30.83%
fold increase in G2/M cell population compared to untreated control (HepG2 cells; HepG2, IC50 concentration): ~3 fold
increase in level of p53 compared with negative control (p53): 8.91 fold
decrease in level of Bcl-2 compared with negative control (Bcl-2): 5.58 fold
